# Literature values as cited in patent US12404348B2, “Bifunctional chimeric molecules for labeling of kinases with target binding moieties and methods of use thereof” (The Brigham and Women's Hospital, Inc., priority 2021, dated 2025).
# Like-named read-outs stand apart in the source and are kept apart here.
# Key:
# NF-κB Pathway = conditions: U(37 cells)
# Recombinant PKCζ = biological target: T1, Recombinant PKCζ (Homo sapiens, UniProt Q05513)
# T1 sequence (Q05513 1-592): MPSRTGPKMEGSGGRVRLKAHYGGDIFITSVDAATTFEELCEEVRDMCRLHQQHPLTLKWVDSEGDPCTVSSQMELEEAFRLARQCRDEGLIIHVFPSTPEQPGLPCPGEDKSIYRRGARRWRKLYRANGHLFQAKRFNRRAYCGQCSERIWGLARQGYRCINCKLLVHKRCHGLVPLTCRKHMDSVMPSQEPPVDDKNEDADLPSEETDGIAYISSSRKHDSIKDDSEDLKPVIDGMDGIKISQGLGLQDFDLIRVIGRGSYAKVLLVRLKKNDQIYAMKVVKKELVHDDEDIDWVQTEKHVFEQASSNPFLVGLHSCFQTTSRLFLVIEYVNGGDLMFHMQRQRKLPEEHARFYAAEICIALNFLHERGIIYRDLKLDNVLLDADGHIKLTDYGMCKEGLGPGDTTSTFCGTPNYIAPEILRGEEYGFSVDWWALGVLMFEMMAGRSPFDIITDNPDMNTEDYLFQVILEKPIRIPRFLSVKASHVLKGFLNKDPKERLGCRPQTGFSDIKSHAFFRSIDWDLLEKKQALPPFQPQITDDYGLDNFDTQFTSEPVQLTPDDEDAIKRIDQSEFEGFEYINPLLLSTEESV
# PKCl = biological target: T2, PKCl (Homo sapiens, UniProt P41743)
# T2 sequence (P41743 1-596): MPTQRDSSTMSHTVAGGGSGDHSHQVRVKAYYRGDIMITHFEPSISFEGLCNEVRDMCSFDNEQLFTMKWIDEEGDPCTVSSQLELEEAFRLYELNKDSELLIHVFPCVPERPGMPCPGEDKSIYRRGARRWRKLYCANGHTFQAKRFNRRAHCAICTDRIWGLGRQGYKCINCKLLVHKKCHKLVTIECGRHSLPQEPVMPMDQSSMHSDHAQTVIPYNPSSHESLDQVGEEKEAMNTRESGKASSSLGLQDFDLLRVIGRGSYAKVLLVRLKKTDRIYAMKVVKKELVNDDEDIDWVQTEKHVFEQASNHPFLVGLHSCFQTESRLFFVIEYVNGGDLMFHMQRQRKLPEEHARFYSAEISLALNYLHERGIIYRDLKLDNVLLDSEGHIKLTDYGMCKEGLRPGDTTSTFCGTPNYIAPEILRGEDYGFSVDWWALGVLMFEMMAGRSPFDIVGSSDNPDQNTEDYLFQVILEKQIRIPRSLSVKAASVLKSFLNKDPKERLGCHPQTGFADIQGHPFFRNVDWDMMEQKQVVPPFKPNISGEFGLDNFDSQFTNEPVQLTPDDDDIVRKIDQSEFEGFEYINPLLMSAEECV
# PDK1 [1] = biological target: T3, PDK1 (Homo sapiens, UniProt O15530)
# T3 sequence (O15530 1-556): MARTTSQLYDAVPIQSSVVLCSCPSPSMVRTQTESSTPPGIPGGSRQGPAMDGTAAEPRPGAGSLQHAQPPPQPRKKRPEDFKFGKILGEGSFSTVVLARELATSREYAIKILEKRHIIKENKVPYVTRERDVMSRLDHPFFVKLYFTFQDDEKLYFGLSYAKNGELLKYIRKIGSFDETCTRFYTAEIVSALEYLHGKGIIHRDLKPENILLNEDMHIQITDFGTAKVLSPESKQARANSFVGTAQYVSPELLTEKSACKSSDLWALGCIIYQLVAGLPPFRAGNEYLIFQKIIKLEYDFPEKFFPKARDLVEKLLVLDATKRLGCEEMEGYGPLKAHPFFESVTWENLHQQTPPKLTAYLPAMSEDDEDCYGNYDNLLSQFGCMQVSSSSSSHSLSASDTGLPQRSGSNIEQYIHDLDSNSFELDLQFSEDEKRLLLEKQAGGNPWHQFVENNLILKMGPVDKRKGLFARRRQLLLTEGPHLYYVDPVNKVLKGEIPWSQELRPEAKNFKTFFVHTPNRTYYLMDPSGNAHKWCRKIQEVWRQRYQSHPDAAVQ
# AKT1 = AKT1 (Homo sapiens, UniProt P31749)
# PDK1 [2] = biological target: T3, PDK1; conditions: for Kd: read-out: ITC Kd
# AKT1, sequence (P31749 whole entry): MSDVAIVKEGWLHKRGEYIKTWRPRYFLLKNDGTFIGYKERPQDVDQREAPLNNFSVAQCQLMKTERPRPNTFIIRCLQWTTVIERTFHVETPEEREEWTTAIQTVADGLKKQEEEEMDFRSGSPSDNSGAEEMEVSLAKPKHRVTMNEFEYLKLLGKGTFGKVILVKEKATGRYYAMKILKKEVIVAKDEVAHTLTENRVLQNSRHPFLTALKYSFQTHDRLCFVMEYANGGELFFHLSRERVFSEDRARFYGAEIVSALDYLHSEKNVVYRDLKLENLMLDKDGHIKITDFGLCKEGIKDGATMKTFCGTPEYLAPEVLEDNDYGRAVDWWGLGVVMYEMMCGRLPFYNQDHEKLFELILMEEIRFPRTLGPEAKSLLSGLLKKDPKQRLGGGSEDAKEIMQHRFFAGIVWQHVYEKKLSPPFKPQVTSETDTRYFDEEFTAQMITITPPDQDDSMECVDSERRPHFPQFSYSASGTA
compound,measurement,setting,value
CC(C)(C)C1=NN(c2ccc(F)cc2)C(c2ccc(O)cc2)C1 (centres unmarked) [1b],NF-κB reporter gene assay % inhibin at 5 μM,NF-κB Pathway,63.8%
CC(C)(C)C1=NN(c2ccc(Br)cc2)C(c2ccc(O)cc2)C1 (centres unmarked) [1c],NF-κB reporter gene assay % inhibin at 5 μM,NF-κB Pathway,58.4%
Cc1ccc(N2N=C(C(C)(C)C)CC2c2ccc(O)cc2)cc1 (centres unmarked) [1e],NF-κB reporter gene assay % inhibin at 5 μM,NF-κB Pathway,62.9%
CC(C)c1ccc(N2N=C(C(C)(C)C)CC2c2ccc(O)cc2)cc1 (centres unmarked) [1f],cell-free assay % inhibin at 62.5 μM,Recombinant PKCζ,54.9%
CC(C)(C)C1=NN(c2ccc(C(=O)O)cc2)C(c2ccc(O)cc2)C1 (centres unmarked) [1g],cell-free assay % inhibin at 62.5 μM,Recombinant PKCζ,47.9%
same,NF-κB reporter gene assay % inhibin at 5 μM,NF-κB Pathway,40.7%
CC(C)(C)C1=NN(c2cccc(Cl)c2)C(c2ccc(O)cc2)C1 (centres unmarked) [1h],NF-κB reporter gene assay % inhibin at 5 μM,NF-κB Pathway,64.6%
same,PKCl % inhibn at 20 μM,PKCl,43.5%
CC(C)(C)C1=NN(c2cccc(F)c2)C(c2ccc(O)cc2)C1 (centres unmarked) [1i],NF-κB reporter gene assay % inhibin at 5 μM,NF-κB Pathway,73.5%
same,PKCl % inhibn at 20 μM,PKCl,19.3%
CC(C)(C)C1=NN(c2cccc(C(F)(F)F)c2)C(c2ccc(O)cc2)C1 (centres unmarked) [1j],NF-κB reporter gene assay % inhibin at 5 μM,NF-κB Pathway,89.7%
same,IC50,NF-κB Pathway; read-out: NF-κB reporter gene assay IC50 ± SD,2700 ± 320 nM
same,PKCl % inhibn at 20 μM,PKCl,17.0%
Cc1cccc(N2N=C(C(C)(C)C)CC2c2ccc(O)cc2)c1 (centres unmarked) [1k],NF-κB reporter gene assay % inhibin at 5 μM,NF-κB Pathway,73.7%
same,PKCl % inhibn at 20 μM,PKCl,13.9%
CC(C)(C)C1=NN(c2ccccc2Cl)C(c2ccc(O)cc2)C1 (centres unmarked) [1l],cell-free assay % inhibin at 62.5 μM,Recombinant PKCζ,57.1%
same,NF-κB reporter gene assay % inhibin at 5 μM,NF-κB Pathway,23.5%
CC(C)(C)C1=NN(c2ccccc2F)C(c2ccc(O)cc2)C1 (centres unmarked) [1m],cell-free assay % inhibin at 62.5 μM,Recombinant PKCζ,57.6%
same,NF-κB reporter gene assay % inhibin at 5 μM,NF-κB Pathway,48.7%
CC(C)(C)C1=NN(c2ccc(Cl)cc2Cl)C(c2ccc(O)cc2)C1 (centres unmarked) [1n],cell-free assay % inhibin at 62.5 μM,Recombinant PKCζ,71.0%
same,NF-κB reporter gene assay % inhibin at 5 μM,NF-κB Pathway,50.2%
CC(C)(C)C1=NN(c2ccc(F)cc2F)C(c2ccc(O)cc2)C1 (centres unmarked) [1o],cell-free assay % inhibin at 62.5 μM,Recombinant PKCζ,68.0%
same,NF-κB reporter gene assay % inhibin at 5 μM,NF-κB Pathway,51.8%
Cc1ccc(N2N=C(C(C)(C)C)CC2c2ccc(O)cc2)c(C)c1 (centres unmarked) [1p],cell-free assay % inhibin at 62.5 μM,Recombinant PKCζ,59.9%
same,NF-κB reporter gene assay % inhibin at 5 μM,NF-κB Pathway,41.5%
CC(C)(C)C1=NN(c2ccc(F)c(F)c2)C(c2ccc(O)cc2)C1 (centres unmarked) [1s],PKCl % inhibn at 20 μM,PKCl,23.7%
Oc1ccc(C2CC(c3ccccc3O)=NN2c2ccc(Cl)cc2)cc1O (centres unmarked) [4g],PKCl % inhibn at 20 μM,PKCl,44.1%
O=C(O)/C=C(/CCc1cccc(Cl)c1)c1ccccc1 [Compound 3Z],Amax,PDK1 [1],2.2 fold
COc1ccccc1Cn1c(-c2cccnc2N)nc2cccnc21 [Compound 3c],Akt1 ΔTm,AKT1,no shift
O=C(O)/C=C(\CCc1ccc(F)cc1)c1ccccc1 [Compound 4E],AC50,PDK1 [1],n.e.
same,Amax,PDK1 [1],n.e.
O=C(O)/C=C(/CCc1ccc(F)cc1)c1ccccc1 [Compound 4Z],Amax,PDK1 [1],3.3 fold
O=C(O)/C=C(/CCc1ccc(Br)cc1)c1ccccc1 [Compound 5Z],Amax,PDK1 [1],3.9 fold
same,ITC Ka,PDK1 [2],4.78E4 — M^-1
same,ITC TΔS,PDK1 [2],3.20 kcal/mol
same,ITC ΔG,PDK1 [2],-6.32 kcal/mol
same,ITC ΔH,PDK1 [2],-3.07 kcal/mol
same,ITC ΔH/ΔG,PDK1 [2],48.6%
NCc1ccc(-n2c(-c3cccnc3)nc3cccnc32)cc1 [Compound 5b],Akt1 ΔTm,AKT1,no shift
CC(=O)Nc1ccc(-n2c(-c3cccnc3N)nc3cccnc32)cc1 [Compound 5c],Akt1 ΔTm,AKT1,3.7 °C
Nc1ccc(-n2c(-c3cccnc3N)nc3cccnc32)cc1 [Compound 5d],Akt1 ΔTm,AKT1,4.1 °C
O=C(O)/C=C(/CCc1ccc(C(F)(F)F)cc1)c1ccccc1 [Compound 6Z],Amax,PDK1 [1],4.4 fold
same,AC50,PDK1 [1]; read-out: AC50,7.1 µM
same,ITC Ka,PDK1 [2],9.66E4 — M^-1
same,ITC TΔS,PDK1 [2],4.79 kcal/mol
same,ITC ΔG,PDK1 [2],-6.73 kcal/mol
same,ITC ΔH,PDK1 [2],-1.94 kcal/mol
same,ITC ΔH/ΔG,PDK1 [2],28.8%
same,Kd,PDK1 [2],10.4 µM
O=C(O)/C=C(/CCc1ccc(Cl)c(Cl)c1)c1ccccc1 [Compound 7Z],Amax,PDK1 [1],2.4 fold
same,AC50,PDK1 [1]; read-out: AC50,2.8 µM
same,ITC Ka,PDK1 [2],7.18E4 — M^-1
same,ITC TΔS,PDK1 [2],2.80 kcal/mol
same,ITC ΔG,PDK1 [2],-6.56 kcal/mol
same,ITC ΔH,PDK1 [2],-3.71 kcal/mol
same,ITC ΔH/ΔG,PDK1 [2],56.6%
same,Kd,PDK1 [2],13.9 µM
O=C(O)/C=C(\CCc1ccc(Cl)cc1Cl)c1ccccc1 [Compound 8E],AC50,PDK1 [1],n.e.
same,Amax,PDK1 [1],n.e.
O=C(O)/C=C(/CCc1ccc(Cl)cc1Cl)c1ccccc1 [Compound 8Z],Amax,PDK1 [1],2.1 fold
same,AC50,PDK1 [1]; read-out: AC50,4.7 µM
same,ITC Ka,PDK1 [2],1.71E5 — M^-1
same,ITC TΔS,PDK1 [2],4.93 kcal/mol
same,ITC ΔG,PDK1 [2],-7.07 kcal/mol
same,ITC ΔH,PDK1 [2],-2.08 kcal/mol
same,ITC ΔH/ΔG,PDK1 [2],29.5%
Nc1ncccc1-c1nc2cccnc2n1-c1cccc(CNC(=O)c2ccccc2)c1 [Compound 8g],Akt1 ΔTm,AKT1,no shift
Nc1ncccc1-c1nc2cccnc2n1-c1ccc(CNCc2ccccc2)cc1 [Compound 8h],Akt1 ΔTm,AKT1,4.9 °C
CCc1ccc(CC/C(=C\C(=O)O)c2ccccc2)cc1 [Compound 10E],AC50,PDK1 [1],n.e.
same,Amax,PDK1 [1],n.e.
CCc1ccc(CC/C(=C/C(=O)O)c2ccccc2)cc1 [Compound 10Z],Amax,PDK1 [1],1.4 fold
same,AC50,PDK1 [1]; read-out: AC50,> 30 µM
O=C(O)/C=C(\CCc1ccc(-c2ccccc2)cc1)c1ccccc1 [Compound 11E],Amax,PDK1 [1],n.e.
O=C(O)/C=C(/CCc1ccc(-c2ccccc2)cc1)c1ccccc1 [Compound 11Z],Amax,PDK1 [1],3.2 fold
O=C(O)/C=C(/CCc1ccc2ccccc2c1)c1ccccc1 [Compound 12Z],Amax,PDK1 [1],3.5 fold
same,ITC Ka,PDK1 [2],7.26E4 — M^-1
same,ITC TΔS,PDK1 [2],1.96 kcal/mol
same,ITC ΔG,PDK1 [2],-6.67 kcal/mol
same,ITC ΔH,PDK1 [2],-4.56 kcal/mol
same,ITC ΔH/ΔG,PDK1 [2],68.3%
O=C(O)/C=C(/CCc1c[nH]c2ccccc12)c1ccccc1 [Compound 13Z],Amax,PDK1 [1],3.1 fold
same,ITC Ka,PDK1 [2],9.63E4 — M^-1
same,ITC TΔS,PDK1 [2],2.60 kcal/mol
same,ITC ΔG,PDK1 [2],-6.73 kcal/mol
same,ITC ΔH,PDK1 [2],-4.09 kcal/mol
same,ITC ΔH/ΔG,PDK1 [2],60.8%
